These results are taken from patent publication US8822699B2, “Heterocyclic compound and use thereof” (Takeda Pharmaceutical Company Limited, priority 2010, dated 2014).

In general, IC50 refers to the concentration that gives 50% inhibition. By inhibition is commonly meant the drop in the measured response relative to a control, in per cent.

Like-named read-outs stand apart in the source and are kept apart here.

Assay [1] deals with Aβ42 production in primary nerve cells. Put plainly: Measurement of amyloid β production inhibition rate using primary nerve cell (Aβ42 sandwich ELISA). Conditions: primary nerve cells from cerebral cortex of SD rat fetus, cultured 3 days with compound, culture supernatant, sandwich ELISA for Aβ42, read-out: Aβ42 production inhibitory activity IC50. In kind it is cell-based. The protocol:
Measurement of Amyloid β Production Inhibition Rate Using Primary Nerve Cell
The primary nerve cells were collected from the cerebral cortex of rat fetus (CLEA Japan, Inc.: SD rat, fetal life 17 days of age), and suspended in a neurobasal medium containing B27 supplement, L-glutamine, penicillin-streptomycin (manufactured by Invitrogen) at 500,000 cells/mL. Then, the suspension was seeded in poly L-lysine-coated 96 well plate (manufactured by SUMITOMO BAKELITE) by 100 μL, and cultured at 37° C., 5% CO2 for 7 days. The medium was completely removed, and a new neurobasal medium was added at 75 μL/well. Thereto was added (75 μL/well) a neurobasal medium supplemented with a 2-fold measurement concentration of an evaluation target compound, and the mixture was cultured for 3 days. The culture supernatant was collected from each well, diluted as appropriate, applied to sandwich ELISA between BNT77 antibody-BA27 antibody (for Aβ40) and sandwich ELISA between BNT77 antibody-3005 antibody (for Aβ42), and the amounts of Aβ40 and Aβ42 were measured.
The amyloid β production inhibition rate (%) of the compound was calculated by the following formula. (1−(amyloid β production amount with addition of compound)/(amyloid β production amount without addition of compound))×100
The amyloid β production 50% inhibitory rate (IC50 value) was calculated using the statistical analysis software (SAS Preclinical Package) as the concentration of the compound showing 50% inhibition when the amyloid β production amount without addition of the compound is 100%. In addition, a new neurobasal medium was added (75 μL/well) to the cells after collection of the culture supernatant, and the cells were left standing for about 30 min to reach room temperature. Cell-Titer Glo Luminescent Cell Viability Assay (manufactured by Promega) was added at 75 μL/well, and the plate was shaken for 2 min and reacted for about 10 min.
(An ELISA detects its analyte on a solid surface through an enzyme-linked reagent.)

In assay [2] the test system is Aβ42 (soluble Aβ in hippocampi). The assay is described as follows: Aβ42 in hippocampi of mice after oral administration (Aβ ELISA). In kind it is in vivo. Conditions: C57BL/6J mice, 10 mg/kg orally, hippocampi isolated 3 hours after administration, soluble Aβ42 by two-site sandwich ELISA; for inhibition at 10 mg/kg: Mus musculus, po, 3 h, read-out: Aβ42 production inhibitory activity (% inhibition); for Aβ42 production inhibitory activity (% inhibition): 10 mg/kg. The protocol: C57BL/6J mice (7-10 weeks old) were purchased from CLEA Japan Inc. Mice were housed in groups and kept on a 12 h-light; 12 h-dark schedule. All mice were given ad libitum access to food and water.
Each test compound was reconstituted in solubilization buffer ([DMSO (Wako)]: [10% Cremophor (Nakarai)+30% polyethylene glycol 400 (Wako)+60% 2 mol/L Citrate buffer (Wako)]=1:9) and orally administrated at 10 mg/kg.
Hippocampi was isolated from animals, 3 hours after test compounds were orally administrated. Hippocampi were homogenized in ice-cold Tris-extraction buffer (50 mmol/L Tris-HCl, pH 7.2, 200 mmol/L sodium chloride, 2% protease-free bovine serum albumin, and 0.01% sodium merthiolate) containing protease inhibitor cocktails (Roche, Switzerland). After centrifugation at 15,000 rpm for 15 minutes, the supernatants were subjected to two-site sandwich ELISA to measure amount of soluble Aβ. Aβ42 was quantitated by two-site sandwich ELISA using BNT77, which recognizes Aβ11-28, as a capture antibody and BC05-HRP as a detector antibody, respectively.

Turning to `COc1cc(-c2nnc3n2CCCC3(Oc2ccc(F)c(F)c2)C(C)(C)O)ccc1-c1cnc(C)o1` (stereo not drawn) [Example 124, 2-{8-(3,4-difluorophenoxy)-3-[3-methoxy-4-(2-methyl-1,3-oxazol-5-yl)phenyl]-5,6,7,8-tetrahydro[1,2,4]triazolo[4,3-a]pyridin-8-yl}propan-2-ol], in assay [1], the IC50 is 68 nM. For the same compound, the inhibition at 10 mg/kg in assay [2] came to 41%.

For the compound `COc1cc(-c2nnc3n2CCCC3(Oc2ccc(C(F)(F)F)cc2)C(C)(C)O)ccc1-c1cnc(C)o1` (stereo not drawn) [Example 104, 2-{3-[3-methoxy-4-(2-methyl-1,3-oxazol-5-yl)phenyl]-8-[4-(trifluoromethyl)phenoxy]-5,6,7,8-tetrahydro[1,2,4]triazolo[4,3-a]pyridin-8-yl}propan-2-ol], in assay [1], the IC50 amounted to 41 nM. For the same compound, the “Aβ42 production inhibitory activity (% inhibition)” value in assay [2] worked out at 36%.

Turning to `COc1cc(-c2nnc3n2CCCC3(Oc2cc(F)cc(F)c2)C(C)(C)O)ccc1-c1cnc(C)o1` (stereo not drawn) [Example 141, 2-{8-(3,5-difluorophenoxy)-3-[3-methoxy-4-(2-methyl-1,3-oxazol-5-yl)phenyl]-5,6,7,8-tetrahydro[1,2,4]triazolo[4,3-a]pyridin-8-yl}propan-2-ol], the IC50 in assay [1] turned out to be 78 nM. Also, the inhibition at 10 mg/kg in assay [2] amounted to 46%.

In the case of `COc1cc(-c2nnc3n2CCCC3(Oc2ccc(F)c(F)c2)C(C)(C)O)ccc1-c1cnc(C)o1` (stereo not drawn) [Example 92, 2-{8-(3,4-difluorophenoxy)-3-[3-methoxy-4-(2-methyl-1,3-oxazol-5-yl)phenyl]-5,6,7,8-tetrahydro[1,2,4]triazolo[4,3-a]pyridin-8-yl}propan-2-ol], the 50% inhibitory concentration (IC50) in assay [1] (Rattus norvegicus, 72 h) was 59 nM. In addition, the “Aβ42 production inhibitory activity (% inhibition)” value in assay [2] amounted to 32%.

Turning to `COc1cc(-c2nnc3n2CCC[C@]3(Oc2cc(F)c(F)c(F)c2)C(C)(C)O)ccc1-c1cnc(C)o1` [Example 122, 2-{(8R)-3-[3-methoxy-4-(2-methyl-1,3-oxazol-5-yl)phenyl]-8-(3,4,5-trifluorophenoxy)-5,6,7,8-tetrahydro[1,2,4]triazolo[4,3-a]pyridin-8-yl}propan-2-ol], the IC50 in assay [1] (Rattus norvegicus, 72 h) was 19 nM. Further, in assay [2], the inhibition at 10 mg/kg was found to be 54%.

Regarding `COc1cc(-c2nnc3n2CCCC3(Oc2ccc(Cl)c(C(F)(F)F)c2)C(C)(C)O)ccc1-n1cnc(C)n1` (stereo not drawn) [Example 139, 2-{8-[4-chloro-3-(trifluoromethyl)-phenoxy]-3-[3-methoxy-4-(3-methyl-1H-1,2,4-triazol-1-yl)phenyl]-5,6,7,8-tetrahydro-[1,2,4]triazolo[4,3-a]pyridin-8-yl}propan-2-ol], the IC50 in assay [1] (Rattus norvegicus, 72 h) amounted to 40 nM. The inhibition at 10 mg/kg in assay [2] amounted to 22%.

As to `COc1nc(-c2nnc3n2CCCC3(Oc2cc(F)c(F)c(F)c2)C(C)(C)O)ccc1-n1cnc(C)c1` (stereo not drawn) [Example 134, 2-{3-[6-methoxy-5-(4-methyl-1H-imidazol-1-yl)pyridin-2-yl]-8-(3,4,5-trifluorophenoxy)-5,6,7,8-tetrahydro[1,2,4]triazolo[4,3-a]pyridin-8-yl}propan-2-ol], the half-inhibitory concentration (IC50) in assay [1] (Rattus norvegicus, 72 h) turned out to be 42 nM. The inhibition at 10 mg/kg in assay [2] worked out at 31%.

Consider `COc1cc(-c2nnc3n2CCCC3(Oc2cccc(C(F)(F)F)c2)C(C)(C)O)ccc1-c1cnc(C)o1` (stereo not drawn) [Example 103, 2-{3-[3-methoxy-4-(2-methyl-1,3-oxazol-5-yl)phenyl]-8-[3-(trifluoromethyl)phenoxy]-5,6,7,8-tetrahydro[1,2,4]triazolo[4,3-a]pyridin-8-yl}propan-2-ol], for which the IC50 in assay [1] (Rattus norvegicus, 72 h) is 41 nM. The inhibition at 10 mg/kg in assay [2] was 42%.

In the case of `COc1cc(-c2nnc3n2CCCC3(Oc2cccc(C(F)(F)F)c2)C(C)(C)O)ccc1-c1cnc(C)o1` (stereo not drawn) [Example 130, 2-{3-[3-methoxy-4-(2-methyl-1,3-oxazol-5-yl)phenyl]-8-[3-(trifluoromethyl)phenoxy]-5,6,7,8-tetrahydro[1,2,4]triazolo[4,3-a]pyridin-8-yl}propan-2-ol], the 50% inhibitory concentration (IC50) in assay [1] turned out to be 24 nM. Moreover, the “Aβ42 production inhibitory activity (% inhibition)” value in assay [2] was determined as 59%.

`COc1cc(-c2nnc3n2CCCC3(Oc2cc(F)c(F)c(F)c2)C(C)(C)O)ccc1-c1cnc(C)o1` (stereo not drawn) [Example 99, 2-{3-[3-methoxy-4-(2-methyl-1,3-oxazol-5-yl)phenyl]-8-(3,4,5-trifluorophenoxy)-5,6,7,8-tetrahydro[1,2,4]triazolo[4,3-a]pyridin-8-yl}propan-2-ol]: the concentration for half-maximal inhibition (IC50) in assay [1] (Rattus norvegicus, 72 h) turned out to be 20 nM. For the same compound, in assay [2], the inhibition at 10 mg/kg was found to be 34%.

Take `COc1cc(-c2nnc3n2CCCC3(Oc2ccc(Cl)c(F)c2)C(C)(C)O)ccc1-c1cnc(C)o1` (stereo not drawn) [Example 111, 2-{8-(4-chloro-3-fluorophenoxy)-3-[3-methoxy-4-(2-methyl-1,3-oxazol-5-yl)phenyl]-5,6,7,8-tetrahydro[1,2,4]triazolo[4,3-a]pyridin-8-yl}propan-2-ol]: the IC50 in assay [1] is 10 nM. Also, in assay [2], the inhibition at 10 mg/kg was found to be 46%.

For the compound `COc1cc(-c2nnc3n2CCCC3(Oc2cc(F)c(F)c(F)c2)C(C)(C)O)ccc1-c1cnn(C)c1` (stereo not drawn) [Example 144, 2-{3-[3-methoxy-4-(1-methyl-1H-pyrazol-4-yl)phenyl]-8-(3,4,5-trifluorophenoxy)-5,6,7,8-tetrahydro[1,2,4]triazolo[4,3-a]pyridin-8-yl}propan-2-ol], in assay [1] (Rattus norvegicus, 72 h), the IC50 worked out at 214 nM. The inhibition at 10 mg/kg in assay [2] was found to be 31%.

`COc1cc(-c2nnc3n2CCCC3(Cc2ccc(F)c(F)c2)C(C)(C)O)ccc1-c1cnc(C)o1` (stereo not drawn) [Example 49, 2-{8-(3,4-difluorobenzyl)-3-[3-methoxy-4-(2-methyl-1,3-oxazol-5-yl)phenyl]-5,6,7,8-tetrahydro[1,2,4]triazolo[4,3-a]pyridin-8-yl}propan-2-ol]: in assay [1], the half-inhibitory concentration (IC50) is 31 nM.

Regarding `COc1cc(-c2nnc3n2CCCC3(CC2CC2)c2ccc(Cl)c(C(F)(F)F)c2)ccc1-n1cnc(C)c1` (stereo not drawn) [Example 78, 8-[4-chloro-3-(trifluoromethyl)phenyl]-8-(cyclopropylmethyl)-3-[3-methoxy-4-(4-methyl-1H-imidazol-1-yl)phenyl]-5,6,7,8-tetrahydro[1,2,4]triazolo-[4,3-a]pyridine], in assay [1] (Rattus norvegicus, 72 h), the concentration for half-maximal inhibition (IC50) turned out to be 55 nM.

In the case of `COc1nc(-c2nnc3n2CCCC3(Oc2ccc(F)c(F)c2)C(C)(C)O)ccc1-n1cnc(C)c1` (stereo not drawn) [Example 135, 2-{8-(3,4-difluorophenoxy)-3-[6-methoxy-5-(4-methyl-1H-imidazol-1-yl)pyridin-2-yl]-5,6,7,8-tetrahydro[1,2,4]triazolo[4,3-a]pyridin-8-yl}propan-2-ol], the half-maximal inhibitory concentration (IC50) in assay [1] (Rattus norvegicus, 72 h) amounted to 123 nM.

For the compound `COc1cc(-c2nnc3n2CCCC3(C)c2ccc(Cl)cc2)ccc1-c1cnc(C)o1` (single isomer, unassigned) [Example 3, 8-(4-chlorophenyl)-3-[3-methoxy-4-(2-methyl-1,3-oxazol-5-yl)phenyl]-8-methyl-5,6,7,8-tetrahydro[1,2,4]triazolo[4,3-a]pyridine], the half-inhibitory concentration (IC50) in assay [1] was 459 nM.

For `COc1nc(-c2nnc3n2CCC[C@]3(Oc2cc(F)c(F)c(F)c2)C(C)(C)O)ccc1-n1cnc(C)c1` [Example 187, 2-{(8R)-3-[6-methoxy-5-(4-methyl-1H-imidazol-1-yl)pyridin-2-yl]-8-(3,4,5-trifluorophenoxy)-5,6,7,8-tetrahydro[1,2,4]triazolo[4,3-a]pyridin-8-yl}propan-2-ol 1(+)-mandelate], the concentration for half-maximal inhibition (IC50) in assay [1] is 29 nM.

In the case of `COc1cc(-c2nnc3n2CCCC3(Sc2ccc(F)c(F)c2)C(C)(C)O)ccc1-c1cnc(C)o1` (stereo not drawn) [Example 140, 2-{8-[(3,4-difluorophenyl)sulfanyl]-3-[3-methoxy-4-(2-methyl-1,3-oxazol-5-yl)phenyl]-5,6,7,8-tetrahydro[1,2,4]triazolo[4,3-a]pyridin-8-yl}propan-2-ol], the 50% inhibitory concentration (IC50) in assay [1] (Rattus norvegicus, 72 h) amounted to 41 nM.
